# Experiments:
# [1] = test system: basal cell carcinomas and melanomas; experiment: Clinical trials of bleomycin-EPT for basal cell carcinomas and melanomas; format: in vivo, humans; conditions: for % RESPONSE CR D′D / % RESPONSE CR D′E′ / TUMOR RESPONSE CR D′D / TUMOR RESPONSE CR D′E′: CR=complete response; for % RESPONSE NE D′D / % RESPONSE NE D′E′ / TUMOR RESPONSE NE D′D / TUMOR RESPONSE NE D′E′: NE=no effect
# Excerpt: The following examples illustrate the use of EPT in cell lines, animals and humans. Example 1 illustrates EPT in poorly differentiated human pancreatic tumors (Panc-3) xenografted subcutaneously on the flank of nude mice. […] Example 4 provides in vitro data for EPT utilizing low voltage (electric field) and long pulse length. The parameters for EPT are described in the examples; for Example 1 and for the head and neck clinical trials, the nominal electric field was 1300 V/cm and 6 pulses for 99-100 μsec, spaced at 1 second intervals. The clinical trials (Example 2) used similar parameters, however the electric field was 1130 V/cm. (Nominal electric field (V/cm) is applied voltage (V) across the needle pairs divided by the distance between the needle pairs (cm).) The Examples illustrate the use of EPT for effectively killing undesired cell populations (e.g., a tumor) in vitro and in vivo.
# The effectiveness of bleomycin-EPT on the tumors was to be assessed by the end of the eight-week period using the same tumor response criteria as employed in Example 1.
# The concentration of bleomycin administered was 5 U/1 mL. The dosages of bleomycin were administered as follows: […]
# [2] = test system: human prostate xenografts (PC-3); experiment: EPT using MedPulser, PC-3 xenograft; format: in vivo, nude mice; conditions: no tumors observed up to 60 days after treatment
# Excerpt: (§1) Preliminary experiments using MedPulser™ (apparatus of the invention) for treatment of tumor xenografts grown subcutaneously onto nude mice have shown encouraging results. […] Treatment of human prostate xenografts (PC-3) has also shown about 66% complete regression of tumors. (No tumors observed up to 60 days after treatment). Both 4 and 6 needle array are effective in treatment of tumors by EPT.
# [3] = test system: Human pancreatic xenograft (Panc-4); experiment: EPT using MedPulser and bleomycin, Panc-4 xenograft; format: in vivo, nude mice; conditions: up to day 39 of observation
# Excerpt: as §1
# [4] = cited from earlier work
# [5] = test system: non-small cell lung cancer cell line (NSCLC), 177; experiment: EPT with bleomycin of NSCLC xenografts in nude mice; format: in vivo
# [6] = test system: PC-3 (human prostate cell line); experiment: MedPulser 4 vs 6 needle array in vitro, XTT cell survival; format: cell-based; conditions: bleomycin at 2×10^5 M, 20 hours
# Description: Experiments were carried out to compare the efficacy of 6 vs. 4 needle array with MedPulser™ on PC-3 (human prostate cell line) in vitro. Cells were suspended in RPMI media and seeded uniformly at 200,000 cells/ml. Bleomycin at […] was added to the wells (for D+E− and D+E+ only). Cells were electroporated in 24 well plates using the 6-needle and 4-needle array electrodes connected to the MedPulser. The electropulse parameters were 6×99 μs, 1129 V with the 6-needle array and 4×99 μs, 848 V with the 4-needle array. The cells were transferred to 96 well plates and incubated for 20 hours at 37° C. The cell survival was determined using XTT assay which is based on metabolic conversion of XTT to formazan and is measured spectrophotometrically at 450 nm. Only the cells which are live convert XTT to formazan. The percent cell survival values are relative values calculated from the O.D. values of the sample, a control with 100% cell survival (D−E−) and control with 0% cell survival (D−E− with SDS, which lyses all cells).
# [7] = BCC nodules, PR=partial response
# [8] = Mel nodules, PR=partial response
# [9] = Other nodules, PR=partial response
# [10] = Total nodules, PR=partial response
substance,measurement,setting,value
bleomycin,% RESPONSE CR D′D,[1]; BCC nodules,0%
same,% RESPONSE CR D′E′,[1]; BCC nodules,98%
same,TUMOR RESPONSE CR D′D,[1]; BCC nodules,0/6
same,TUMOR RESPONSE CR D′E′,[1]; BCC nodules,43/44
same,% RESPONSE NE D′D,[1]; BCC nodules,83%
same,% RESPONSE NE D′E′,[1]; BCC nodules,0%
same,TUMOR RESPONSE NE D′D,[1]; BCC nodules,5/6
same,TUMOR RESPONSE NE D′E′,"[1]; BCC nodules, less than 50% reduction in tumor volume",0/44
same,TUMOR RESPONSE PR D′E′,"[1]; BCC nodules, PR=50% or greater reduction in tumor volume",1/44
same,% RESPONSE PR D′D,[1]; [7],17%
same,% RESPONSE PR D′E′,[1]; [7],2%
same,TUMOR RESPONSE PR D′D,[1]; [7],1/6
same,% RESPONSE CR D′D,[1]; Mel nodules,0%
same,% RESPONSE CR D′E′,[1]; Mel nodules,91%
same,TUMOR RESPONSE CR D′D,[1]; Mel nodules,0/5
same,TUMOR RESPONSE CR D′E′,[1]; Mel nodules,53/58
same,% RESPONSE NE D′D,[1]; Mel nodules,100%
same,% RESPONSE NE D′E′,[1]; Mel nodules,2%
same,TUMOR RESPONSE NE D′D,[1]; Mel nodules,5/5
same,TUMOR RESPONSE NE D′E′,[1]; Mel nodules,1/58
same,% RESPONSE PR D′D,[1]; [8],0%
same,% RESPONSE PR D′E′,[1]; [8],7%
same,TUMOR RESPONSE PR D′D,[1]; [8],0/5
same,TUMOR RESPONSE PR D′E′,[1]; [8],4/58
same,% RESPONSE CR D′D,[1]; Other nodules,0%
same,% RESPONSE CR D′E′,[1]; Other nodules,80%
same,TUMOR RESPONSE CR D′D,[1]; Other nodules,0/3
same,TUMOR RESPONSE CR D′E′,[1]; Other nodules,4/5
same,% RESPONSE NE D′D,[1]; Other nodules,100%
same,% RESPONSE NE D′E′,[1]; Other nodules,0%
same,TUMOR RESPONSE NE D′D,[1]; Other nodules,3/3
same,TUMOR RESPONSE NE D′E′,[1]; Other nodules,0/5
same,% RESPONSE PR D′D,[1]; [9],0%
same,% RESPONSE PR D′E′,[1]; [9],20%
same,TUMOR RESPONSE PR D′D,[1]; [9],0/3
same,TUMOR RESPONSE PR D′E′,[1]; [9],1/5
same,% RESPONSE CR D′D,[1]; Total nodules,0%
same,% RESPONSE CR D′E′,[1]; Total nodules,93%
same,TUMOR RESPONSE CR D′D,[1]; Total nodules,0/14
same,TUMOR RESPONSE CR D′E′,[1]; Total nodules,100/107
same,% RESPONSE NE D′D,[1]; Total nodules,93%
same,% RESPONSE NE D′E′,[1]; Total nodules,1%
same,TUMOR RESPONSE NE D′D,[1]; Total nodules,13/14
same,TUMOR RESPONSE NE D′E′,[1]; Total nodules,1/107
same,% RESPONSE PR D′D,[1]; [10],7%
same,% RESPONSE PR D′E′,[1]; [10],6%
same,TUMOR RESPONSE PR D′D,[1]; [10],1/14
same,TUMOR RESPONSE PR D′E′,[1]; [10],6/107
same,complete regression of tumors,[2],about 66%
same,mice with complete tumor regression,[3],about 75%
same,log P (P being the partition coefficient between octanol and water),[4],very negative
same,EPT treatment result,"[5]; bleomycin + EPT, NSCLC xenograft",very encouraging results
same,tumor after retreatment,"[5]; recurred tumor retreated at day 27, after 7 days",no evidence of tumor
same,Avg. % Survival,"[6]; D + E + (4N), 4×99 μs, 848 V, 4-needle array",4.78%
same,Avg. % Survival,"[6]; D + E + (6N), 6×99 μs, 1129 V, 6-needle array",−4.12%
same,Avg. % Survival,"[6]; D + E −, no pulse",27.71%
